Patent EP2966448B1, “METHOD FOR THE PREDICTION OR PROGNOSIS OF THE RESPONSE OF A HUMAN SUBJECT SUFFERING FROM CANCER TO TREATMENT WITH AN ANTAGONIST OF THE NK1 RECEPTOR” (priority 2013, dated 2014)
Where two headings read alike, the source gives them in different places.

Experiments:
Colon carcinoma = assay: Inhibition of primary tumor cell cultures (48 hours) vs NK1 receptor immunostaining (Example 1); format: cell-based; conditions: Homo sapiens, 1 micromolar, read-out: Percentage of inhibition of cell cultures
Protocol: (§1) Cell cultures. To obtain tumor cells from human primary tumors we used the method described in De Bari et al. (De Bari et al. 2001). Briefly, small pieces of the tumors were digested into a hyaluronidase solution (Sigma-Aldrich, USA) at a concentration of 1 mg/ml during 15 minutes at 37°C, and then they were treated with 6 mg/ml of collagenase type IV (Invitrogen) during 2 hours at 37°C. Consecutively, cells were washed, and resuspended in the DMEM culture medium with high concentration of glucose (Dulbecco's Modified Eagle's Medium, Invitrogen) supplemented with 1% of antibiotics-antimycotics (Invitrogen) and with 1% of sodium pyruvate (Invitrogen), and the cells were seeded in culture slides at a concentration of 10.000 cells per square centimeter. When cells reached confluence, the adherent cells were separated using sterile trypsin at 0,5% (Invitrogen) and they were used among passages 3 and 9. For the assays shown next, tumor cells were seeded on slides at a concentration of 25.000 cells per well. A total of 6 wells containing the tumor cells were used as survival control. […] All the cultures were kept during 48 hours and later on recollected for their analysis.
(§2) Immunohistochemistry techniques. The presence of NK1 receptors was also analyzed using immunohistochemistry techniques. Briefly, a sample of each of the cultures of the cell lines used in the present invention, was centrifuged (5 minutes at 1.500 rpm) and the pellet obtained was dehydrated using increasing concentrations of ethanol and, finally, xylol. Then, said dehydrated samples were embedded in paraffin, creating a block of cells. Such paraffin blocks were cut with a microtome at 5 microns thickness, and were placed on microscope slides adequate to perform immunohistochemistry techniques. Consecutively, they were de-paraffinized by immersing them in xylol, to be finally hydrated using a solution containing decreasing concentrations of ethanol, and finally submerged them into water. […] After this, the samples were left to cool down at room temperature for 10 minutes. The endogenous peroxidase activity was blocked with 3% peroxide of hydrogen for 30 minutes at room temperature. After washing the samples with 0.05 M of Tris buffer, they were incubated with 10% non-immune pork serum at for 30 minutes at room temperature. To analyze the expression of NK1 receptors, the cellular samples were incubated in the presence of anti-NK1 antibodies (S8305, Sigma-Aldrich) diluted 1:1000, overnight at 4°C. Afterwards, the samples were washed in Tris buffer 0.05 M at room temperature. The next step was the addition of Envision System-HRP (Dako) reagents for 30 minutes at room temperature. Then, the samples were washed again in Tris buffer 0.05 M and the immunoreactivity was visualized through light microscopy with a chromogenic solution containing 3,3'-Diaminobenzidine (DAB+; Dako, USA). To differentiate the cell nuclei, they were slightly stained with hematoxylin. As negative control, it was used samples not incubated with the primary antibody anti-NK1, which was replaced by non-immune serum. All the samples were evaluated.
(§3) To value the immunostaining in each of the cases six cuts were performed to be analyzed by the immunohistochemistry technique. In each of the six cuts, it was counted cells in 20 fields (magnification 400x) using an Olympus microscope (model CX31). In each field it was counted the total number of cells and the number of cells presenting immunostaining, calculating afterwards the percentage of cells which presented immunostaining.

[1] = tested on: Lung carcinoma (non small cell type); assay: as above; format: cell-based; conditions: Homo sapiens, 1 micromolar, read-out: Percentage of inhibition of cell cultures
Protocol: as §1, §2, §3

[2] = tested on: Lung carcinoma (small cell type); assay: as above; format: cell-based; conditions: Homo sapiens, 1 micromolar, read-out: Percentage of inhibition of cell cultures
Protocol: as §1, §2, §3

[3] = tested on: Thyroid carcinoma (folliculary type); assay: as above; format: cell-based; conditions: Homo sapiens, 1 micromolar, read-out: Percentage of inhibition of cell cultures
Protocol: as §1, §2, §3

[4] = tested on: Thyroid carcinoma (papillary type); assay: as above; format: cell-based; conditions: Homo sapiens, 1 micromolar, read-out: Percentage of inhibition of cell cultures
Protocol: as §1, §2, §3

Glioma = assay: as above; format: cell-based; conditions: Homo sapiens, 1 micromolar, read-out: Percentage of inhibition of cell cultures
Protocol: as §1, §2, §3

[5] = tested on: Malignant Fibrous Histiocytoma; assay: as above; format: cell-based; conditions: Homo sapiens, 1 micromolar, read-out: Percentage of inhibition of cell cultures
Protocol: as §1, §2, §3

Ewing Sarcoma = assay: as above; format: cell-based; conditions: Homo sapiens, 1 micromolar, read-out: Percentage of inhibition of cell cultures
Protocol: as §1, §2, §3

Leukemia B = assay: as above; format: cell-based; conditions: Homo sapiens, 1 micromolar, read-out: Percentage of inhibition of cell cultures
Protocol: as §1, §2, §3

Non Hodgkin Lymphoma B = assay: as above; format: cell-based; conditions: Homo sapiens, 1 micromolar, read-out: Percentage of inhibition of cell cultures
Protocol: as §1, §2, §3

Burkitt Lymphoma [6] = assay: as above; format: cell-based; conditions: Homo sapiens, 1 micromolar, read-out: Percentage of inhibition of cell cultures
Protocol: as §1, §2, §3

Hodgkin lymphoma = assay: as above; format: cell-based; conditions: Homo sapiens, 1 micromolar, read-out: Percentage of inhibition of cell cultures
Protocol: as §1, §2, §3

[7] = tested on: Pancreatic carcinoma (Adenocarcinoma); assay: Inhibition of primary tumor cell cultures vs Kras mutation (Example 2); format: cell-based, human; conditions: Homo sapiens, Cases with Kras mutated; 100 micromolar; read-out: Percentage of inhibition of cell cultures
Protocol: (§4) Cell cultures. […] Briefly, small pieces of the tumors were digested into a hyaluronidase solution (Sigma-Aldrich, USA) at a concentration of 1 mg/ml during 15 minutes at 37°C, and then they were treated with 6 mg/ml of collagenase type IV (Invitrogen) during 2 hours at 37°C. Consecutively, cells were washed, and resuspended in the DMEM culture medium with high concentration of glucose (Dulbecco's Modified Eagle's Medium, Invitrogen) supplemented with 1% of antibiotics-antimycotics (Invitrogen) and with 1% of sodium pyruvate (Invitrogen), and the cells were seeded in culture slides at a concentration of 10.000 cells per square centimeter. When cells reached confluence, the adherent cells were separated using sterile trypsin at 0,5% (Invitrogen) and they were used among passages 3 and 9. For the assays shown next, tumor cells were seeded on slides at a concentration of 25.000 cells per well. A total of 6 wells containing the tumor cells were used as survival control. […] All the cultures were kept during 48 hours and later on recollected for their analysis.
(§5) In each case the presence or not of mutations in K-ras gene was determined.
(§6) To determine the existence of mutations in the K-ras gene DNA from cancer tumor cells was extracted from samples obtained from the different cancer tumor cells, using DNA extraction kits from Takara (Madison, WI, US) or Ambion (Huntingdon, Cambridgeshire, United Kingdom), following the manufacturer's instructions, and as it has been previously published (Di Fiore F, et al. 2007). Consecutively it was analyzed by sequencing the exon 2 of the KRAS gene, , by means of PCR amplification from previously extracted cancer tumor DNA, using the following sense primer (SEQ ID NO. 15): 5'-[sequence]-3' and anti-sense primer (SEQ ID NO. 16): 5'-[sequence]-3'. After the purification using the Qiagen extraction kit, the PCR products were sequenced using the Big Dye Terminator Kit V3.1 (Applied Biosystems, Foster City, CA, U.S.) and an ABI Prism 377 or 3100 DNA sequencer (Applied Biosystems). The presence of a heterozygous mutation in the KRAS gene in cancer tumor cells of the cultures was defined as the appearance of a mutant peak of a height of at least a third of the wild type. All the sequence analysis were executed at least twice in two independent PCR.
(§7) The antibody against NK1 receptor (Table 16) was used at 1/50 concentration. The percentages of inhibition are expressed in percentage of variation in relation to control ± standard deviation.

[8] = tested on: Breast carcinoma (ductal adenocarcinoma); assay: as above; format: cell-based, human; conditions: Homo sapiens, Cases with Kras mutated; 100 micromolar; read-out: Percentage of inhibition of cell cultures
Protocol: as §4, §5, §6, §7

[9] = tested on: Ovarian carcinoma (Adenocarcinoma); assay: as above; format: cell-based, human; conditions: Homo sapiens, Cases with Kras mutated; 100 micromolar; read-out: Percentage of inhibition of cell cultures
Protocol: as §4, §5, §6, §7

Endometrium carcinoma = assay: as above; format: cell-based, human; conditions: Homo sapiens, Cases with Kras mutated; 100 micromolar; read-out: Percentage of inhibition of cell cultures
Protocol: as §4, §5, §6, §7

[10] = tested on: Lung carcinoma (non small cell lung carcinoma); assay: as above; format: cell-based, human; conditions: Homo sapiens, Cases with Kras mutated; 100 micromolar; read-out: Percentage of inhibition of cell cultures
Protocol: (§8) To obtain tumor cells from human primary tumors we used the method described in De Bari et al. (De Bari et al. 2001). Briefly, small pieces of the tumors were digested into a hyaluronidase solution (Sigma-Aldrich, USA) at a concentration of 1 mg/ml during 15 minutes at 37°C, and then they were treated with 6 mg/ml of collagenase type IV (Invitrogen) during 2 hours at 37°C. Consecutively, cells were washed, and resuspended in the DMEM culture medium with high concentration of glucose (Dulbecco's Modified Eagle's Medium, Invitrogen) supplemented with 1% of antibiotics-antimycotics (Invitrogen) and with 1% of sodium pyruvate (Invitrogen), and the cells were seeded in culture slides at a concentration of 10.000 cells per square centimeter. When cells reached confluence, the adherent cells were separated using sterile trypsin at 0,5% (Invitrogen) and they were used among passages 3 and 9. For the assays shown next, tumor cells were seeded on slides at a concentration of 25.000 cells per well. A total of 6 wells containing the tumor cells were used as survival control. […] All the cultures were kept during 48 hours and later on recollected for their analysis.
as §5, §6, §7

[11] = tested on: Thyroid carcinoma (follicular carcinoma); assay: as above; format: cell-based, human; conditions: Homo sapiens, Cases with Kras mutated; 100 micromolar; read-out: Percentage of inhibition of cell cultures
Protocol: as §8, §5, §6, §7

[12] = tested on: Urinary bladder carcinoma (transitional cell carcinoma); assay: as above; format: cell-based, human; conditions: Homo sapiens, Cases with Kras mutated; 100 micromolar; read-out: Percentage of inhibition of cell cultures
Protocol: as §8, §5, §6, §7

[13] = tested on: Non Hodgkin Lymphoma B (diffuse B cell lymphoma); assay: as above; format: cell-based, human; conditions: Homo sapiens, B-cell, Cases with Kras mutated; 100 micromolar; read-out: Percentage of inhibition of cell cultures
Protocol: as §1, §5, §6
(§9) The percentages of inhibition are expressed in percentage of variation in relation to control ± standard deviation.

[14] = tested on: Non Hodgkin Lymphoma T (diffuse T cell lymphoma); assay: as above; format: cell-based, human; conditions: Homo sapiens, T-cell, Cases with Kras mutated; 100 micromolar; read-out: Percentage of inhibition of cell cultures
Protocol: as §1, §5, §6, §9

Burkitt Lymphoma [15] = assay: as above; format: cell-based, human; conditions: Homo sapiens, Cases with Kras mutated; 100 micromolar; read-out: Percentage of inhibition of cell cultures
Protocol: as §1, §5, §6, §7

[16] = tested on: human primary tumor cells; assay: Inhibition of primary tumor cell cultures vs low or high expression of the truncated form of NK1 receptor (Example 5; tumor type per table line); format: cell-based; conditions: 100 micromolar
[17] = NK1 receptor immunostaining Group 1 (less than 20% of the cells)
[18] = NK1 receptor immunostaining Group 2 (20-80% of the cells)
[19] = NK1 receptor immunostaining Group 3 (more than 80% of the cells)
[20] = NK1 receptor immunostaining Intensity grade 1
[21] = NK1 receptor immunostaining Intensity grade 2
[22] = NK1 receptor immunostaining Intensity grade 3

C[C@@H](O[C@H]1OCCN(Cc2n[nH]c(=O)[nH]2)[C@H]1c1ccc(F)cc1)c1cc(C(F)(F)F)cc(C(F)(F)F)c1 [Aprepitant]
inhibition at 1 µM (Colon carcinoma; [17]): 11 ± 4%
inhibition at 1 µM (Colon carcinoma; [18]): 44 ± 2%
inhibition at 1 µM (Colon carcinoma; [19]): 95 ± 4%
inhibition at 1 µM (Colon carcinoma; [20]): 26 ± 6%
inhibition at 1 µM (Colon carcinoma; [21]): 56 ± 6%
inhibition at 1 µM (Colon carcinoma; [22]): 95 ± 5%
inhibition at 1 µM [1, 17]: 9 ± 3%
inhibition at 1 µM [1, 18]: 41 ± 3%
inhibition at 1 µM [1, 19]: 94 ± 7%
inhibition at 1 µM [1, 20]: 28 ± 5%
inhibition at 1 µM [1, 21]: 57 ± 5%
inhibition at 1 µM [1, 22]: 95 ± 3%
inhibition at 1 µM [2, 17]: 10 ± 2%
inhibition at 1 µM [2, 18]: 42 ± 3%
inhibition at 1 µM [2, 19]: 97 ± 6%
inhibition at 1 µM [2, 20]: 29 ± 6%
inhibition at 1 µM [2, 21]: 56 ± 6%
inhibition at 1 µM [2, 22]: 96 ± 4%
inhibition at 1 µM [3, 17]: 10 ± 2%
inhibition at 1 µM [3, 18]: 45 ± 2%
inhibition at 1 µM [3, 19]: 97 ± 5%
inhibition at 1 µM [3, 20]: 26 ± 6%
inhibition at 1 µM [3, 21]: 57 ± 5%
inhibition at 1 µM [3, 22]: 95 ± 5%
inhibition at 1 µM [4, 17]: 10 ± 3%
inhibition at 1 µM [4, 18]: 47 ± 3%
inhibition at 1 µM [4, 19]: 97 ± 6%
inhibition at 1 µM [4, 20]: 27 ± 6%
inhibition at 1 µM [4, 21]: 56 ± 4%
inhibition at 1 µM (Glioma; [17]): 11 ± 4%
inhibition at 1 µM (Glioma; [18]): 47 ± 4%
inhibition at 1 µM (Glioma; [19]): 94 ± 6%
inhibition at 1 µM (Glioma; [20]): 28 ± 7%
inhibition at 1 µM (Glioma; [21]): 55 ± 6%
inhibition at 1 µM (Glioma; [22]): 97 ± 4%
inhibition at 1 µM [5, 17]: 11 ± 2%
inhibition at 1 µM [5, 18]: 47 ± 2%
inhibition at 1 µM [5, 19]: 95 ± 6%
inhibition at 1 µM [5, 20]: 28 ± 7%
inhibition at 1 µM [5, 21]: 56 ± 5%
inhibition at 1 µM [5, 22]: 94 ± 3%
inhibition at 1 µM (Ewing Sarcoma; [17]): 11 ± 2%
inhibition at 1 µM (Ewing Sarcoma; [18]): 48 ± 6%
inhibition at 1 µM (Ewing Sarcoma; [19]): 94 ± 6%
inhibition at 1 µM (Ewing Sarcoma; [20]): 27 ± 6%
inhibition at 1 µM (Ewing Sarcoma; [21]): 57 ± 4%
inhibition at 1 µM (Ewing Sarcoma; [22]): 95 ± 6%
inhibition at 1 µM (Leukemia B; [17]): 11 ± 2%
inhibition at 1 µM (Leukemia B; [18]): 43 ± 4%
inhibition at 1 µM (Leukemia B; [19]): 95 ± 4%
inhibition at 1 µM (Leukemia B; [20]): 28 ± 5%
inhibition at 1 µM (Leukemia B; [21]): 54 ± 5%
inhibition at 1 µM (Leukemia B; [22]): 95 ± 6%
inhibition at 1 µM (Non Hodgkin Lymphoma B; [17]): 10 ± 2%
inhibition at 1 µM (Non Hodgkin Lymphoma B; [18]): 47 ± 4%
inhibition at 1 µM (Non Hodgkin Lymphoma B; [19]): 96 ± 5%
inhibition at 1 µM (Non Hodgkin Lymphoma B; [20]): 27 ± 5%
inhibition at 1 µM (Non Hodgkin Lymphoma B; [21]): 55 ± 5%
inhibition at 1 µM (Non Hodgkin Lymphoma B; [22]): 97 ± 6%
inhibition at 1 µM (Burkitt Lymphoma [6]; [17]): 10 ± 2%
inhibition at 1 µM (Burkitt Lymphoma [6]; [18]): 45 ± 6%
inhibition at 1 µM (Burkitt Lymphoma [6]; [19]): 96 ± 4%
inhibition at 1 µM (Burkitt Lymphoma [6]; [20]): 27 ± 5%
inhibition at 1 µM (Burkitt Lymphoma [6]; [21]): 55 ± 3%
inhibition at 1 µM (Burkitt Lymphoma [6]; [22]): 92 ± 5%
inhibition at 1 µM (Hodgkin lymphoma; [17]): 10 ± 3%
inhibition at 1 µM (Hodgkin lymphoma; [18]): 49 ± 3%
inhibition at 1 µM (Hodgkin lymphoma; [19]): 94 ± 5%
inhibition at 1 µM (Hodgkin lymphoma; [20]): 26 ± 5%
inhibition at 1 µM (Hodgkin lymphoma; [21]): 55 ± 3%
inhibition at 1 µM (Hodgkin lymphoma; [22]): 92 ± 6%
inhibition at 100 µM [7]: 22 ± 4%
inhibition at 100 µM [8]: 22 ± 2%
inhibition at 100 µM [9]: 24 ± 5%
inhibition at 100 µM (Endometrium carcinoma): 25 ± 4%
inhibition at 100 µM [10]: 21 ± 2%
inhibition at 100 µM [11]: 26 ± 3%
inhibition at 100 µM [12]: 26 ± 5%
inhibition at 100 µM [13]: 27 ± 5%
inhibition at 100 µM [14]: 25 ± 4%
inhibition at 100 µM (Burkitt Lymphoma [15]): 24 ± 3%
Percentage of inhibition of cell cultures ([16]; Non Hodgkin Lymphoma B (diffuse B cell lymphoma), Cases with low expression of the truncated form of NK1 receptor (Group A)): 23±4 percentage
Percentage of inhibition of cell cultures ([16]; Non Hodgkin Lymphoma T (diffuse T cell lymphoma), Cases with high expression of the truncated form of NK1 receptor (Group B)): 98±6 percentage
Percentage of inhibition of cell cultures ([16]; Ovarian carcinoma (Adenocarcinoma), Cases with low expression of the truncated form of NK1 receptor (Group A)): 29±3 percentage
